# Test results from EP4813381A1, “PHARMACEUTICAL USE OF GUAIANE SESQUITERPENE DERIVATIVE” (Nanjing University Of Chinese Medicine, priority 2023, dated 2025).
# What was measured:
# [1] = test system: renal injury markers (Kim-1, Ngal), inflammatory factors (MCP-1, TNF-α); test: Diabetic nephropathy (DKD) mice: Q-PCR of kidney tissue; assay type: in vivo, C57/BL6J mice; conditions: kidney mRNA, gavage 10 mg/kg
# Protocol: Production license number: SCXK(Su)2023-0009. […] Animals were acclimated for 7 days before use in experiments.
# Administer streptozotocin (STZ, 50 mg/kg) via intraperitoneal injection for 5 consecutive days. After 72 hours, select mice with fasting blood glucose levels exceeding 16.7 mmol/L as model mice. […] Model mice were fed a high-fat diet (HFD) providing 60% of energy from fat for 8 weeks. After 8 weeks, gavage administration commenced.
# Specimen Collection: One hour after the last drug administration, enucleate the eyeball to collect blood. Allow blood to stand at room temperature for 2 hours, then centrifuge at 3000 rpm for 20 minutes. Aspirate the serum, aliquot it, and store at -70 °C for future use. After blood collection, euthanize the mice by cervical dislocation. Open the abdominal cavity, remove the kidneys, and dissect away the perirenal fat and capsule. Store the tissue at -70 °C for future use.
# Additional primer information is as follows: Table 24. Additional Information on Q-PCR Primers
# [2] = Safety evaluation of Compound 20: 30-day oral gavage in mice (body weight, activity status, survival rate)
# [3] = test system: inflammatory cytokines (TNF, IL-6, IL-1); test: LPS mouse sepsis model: Q-PCR of inflammatory factor mRNA in lung, liver and kidney; assay type: in vivo, C57BL/6 mice; conditions: sepsis mice
# Description: Gently pipette to mix the above reagents. The reaction conditions are as follows:
# Detailed information is as follows:
# [4] = test system: CCl4-induced liver injury; test: CCl4 acute liver injury model in mice: serum ALT and AST; assay type: in vivo, C57BL/6 mice; conditions: 3 days (method: U/L)
# Description: The drug of the present invention, prepared according to Example 2; Silybin, Shanghai Yuanye Biotechnology Co., Ltd.; Olive oil, Beijing […] Olive Oil Development Center; Analytical grade carbon tetrachloride (CCl4), Shantou Xilong Chemical Factory; Sodium carboxymethyl cellulose (CMC-Na), Guangdong Shantou Xilong Chemical Factory; RNA Isolater Total RNA Extraction Reagent, […] RT Supermix for qPCR, Nanjing Vazyme Biotech Co., Ltd.; AceQ qPCR SYBR Green Master Mix, Shanghai Yeasen Biotechnology Co., Ltd.; Aspartate Transaminase (AST/GOT) Colorimetric Test Kit, Alanine Transaminase (ALT/GPT) Colorimetric Test Kit, Wuhan Elabscience Biotechnology Co., Ltd. • Experimental animals: […] SCXK(Su)2019-002. […] They were acclimated for 7 days before use in experiments. • Experimental Methods: Establishment of Acute Liver Injury Model in Mice and Group-Specific Drug Administration • Mice were randomly assigned to groups. […] One hour after the final drug administration, blood was collected from the retinal venous plexus. […] Serum was aspirated, aliquoted, and stored at -70 °C for future use. After blood collection, euthanize mice by cervical dislocation. Perform laparotomy to remove the liver. Rinse twice with pre-chilled PBS. Excise the left hepatic lobe tissue. […] Store remaining tissue at -70 °C for future use. • Serum AST and ALT Assay: Use 10 μL of each sample for testing. Determine mouse serum AST and ALT levels according to the operating manual. Measure absorbance at 510 nm using an enzyme-linked immunosorbent assay (ELISA) reader. Calculate sample concentration (U/L) based on the standard curve. Data Statistics: All data are expressed as means ± standard error of the mean (S.E.M.). Differences were analyzed for significance using analysis of variance (ANOVA). For groups showing significant differences in ANOVA, one-way ANOVA followed by Dunnett's test was performed to compare intergroup differences.
# [5] = test system: MC903-induced atopic dermatitis (AD); test: MC903-induced AD model on the dorsum of mice, Compound 1 ointment: skin thickness and dermatitis score; assay type: in vivo; parameters: Skin thickness: unit not given here; conditions: for inhibition rate (dorsal skin thickness): final day; for Dermatitis Score: back, score max 12; for Skin thickness: dorsal region, AD mice
# Protocol: Weigh white petrolatum, light liquid paraffin, glyceryl monostearate, ethylparaben, and cetyl alcohol. Heat to 65 °C while stirring until dissolved. Slowly add the dissolved active pharmaceutical ingredient (API) while continuing to stir until uniformly mixed. Set aside. • (2) Aqueous Phase Preparation: […] Slowly add the aqueous phase to the oil phase while maintaining 65 °C, homogenize, and continue stirring for 30 min; • (4) Cooling: Stop heating, continue stirring, gradually reduce to room temperature, cool to form an ointment, and fill containers. […] Dissolve these substances in a small amount of propylene glycol, then place the resulting solution into the aforementioned pre-cooled blank ointment base. […] Establishment of the AD Model on the Dorsum of Mice and Drug Administration: […] Except for the Normal group, all other groups underwent AD modeling: 48 hours prior to the experiment, hair on the dorsal neck region was meticulously removed using clippers and depilatory cream. […] Model and control group mice received daily application of blank ointment. Twenty-four hours after completing the 14-day modeling period, photographs of skin lesions were taken, and skin lesion and blood samples were collected. Skin Lesion Severity Score: […] Statistical analysis was performed on the data.
# [6] = kidney mRNA (relative, Gapdh), oral gavage 0.1 mg/kg
# [7] = kidney mRNA (relative, Gapdh), oral gavage 1 mg/kg
# [8] = liver mRNA (relative, Gapdh), oral gavage 0.1 mg/kg
# [9] = liver mRNA (relative, Gapdh), oral gavage 1 mg/kg
# [10] = lung mRNA (relative, Gapdh), oral gavage 0.1 mg/kg
# [11] = lung mRNA (relative, Gapdh), oral gavage 1 mg/kg
structure (smiles),measurement,setting,value
CN(C)C[C@@H]1C(=O)O[C@H]2[C@H]1CC[C@@]1(C)C[C@]13CC[C@@](C)(O)[C@H]23 [compound 20],Kim-1,[1],0.64±0.10
same,Mcp-1,[1],1.40±0.22
same,Ngal,[1],0.96±0.13
same,Tnf-α,[1],0.96±0.13
same,effect on mouse survival rate,"[2]; 500 mg/kg and 1000 mg/kg, 30 days",no significant effect on the survival rate
same,time to recover to normal activity after administration,"[2]; 500, 1000 mg/kg oral gavage",1 to 2 h
same,effect on mouse activity status,"[2]; 500, 1000 mg/kg oral gavage once daily, 30 days",relatively reduced activity and lethargy after each administration
same,effect on mouse body weight,"[2]; 500, 1000 mg/kg oral gavage once daily, 30 days, female and male mice",no significant effect on the body weight
same,Survival rate,"[2]; female C57BL/6 mice, 500 mg/kg oral gavage once daily for 30 days",100%
same,Survival rate,"[2]; female C57BL/6 mice, 1000 mg/kg oral gavage once daily for 30 days",100%
same,Survival rate,"[2]; male C57BL/6 mice, 500 mg/kg oral gavage once daily for 30 days",100%
same,Survival rate,"[2]; male C57BL/6 mice, 1000 mg/kg oral gavage once daily for 30 days",100.00%
C=C1C(=O)O[C@@H]2[C@@H]3[C@]4(CC[C@@]3(C)O)C[C@]4(C)CC[C@@H]12 [compound 1],Il1,[3]; [6],7.01±0.33
same,Il6,[3]; [6],7.55±2.08
same,Tnf,[3]; [6],7.17±1.22
same,Il1,[3]; [7],3.05±0.58
same,Il6,[3]; [7],3.11±0.29
same,Tnf,[3]; [7],6.59±0.18
same,Il1,[3]; [8],11.32±2.66
same,Il6,[3]; [8],8.50±3.02
same,Tnf,[3]; [8],8.68 ± 2.12
same,Il1,[3]; [9],4.84±0.60
same,Il6,[3]; [9],5.10±0.82
same,Tnf,[3]; [9],7.01±0.92
same,Il1,[3]; [10],15.29±0.88
same,Il6,[3]; [10],19.17±0.51
same,Tnf,[3]; [10],8.58 ± 0.85
same,Il1,[3]; [11],7.89±1.44
same,Il6,[3]; [11],11.67±1.84
same,Tnf,[3]; [11],7.99±1.36
same,ALT,[4]; oral 0.1 mg/kg,173.58 ± 22.75
same,AST,[4]; oral 0.1 mg/kg,424.52 ± 175.34
same,ALT,[4]; oral 1 mg/kg,104.22 ± 5.21
same,AST,[4]; oral 1 mg/kg,237.16±36.70
same,inhibition rate (dorsal skin thickness),[5]; 0.01% Compound 1 ointment,66%
same,inhibition rate (dorsal skin thickness),[5]; 0.1% Compound 1 ointment,72%
same,inhibition rate (dorsal skin thickness),[5]; 1% Compound 1 ointment,83%
same,Dermatitis Score,[5]; 0.01% ointment for 7 days,3.67±0.33
same,Dermatitis Score,[5]; 0.1% ointment for 7 days,2.50±0.22
same,Dermatitis Score,[5]; 1% ointment for 7 days,2.17±0.17
same,Skin thickness,[5]; 0.01% ointment,36.06±0.91
same,Skin thickness,[5]; 0.1% ointment,33.11±0.31
same,Skin thickness,[5]; 1% ointment,29.56±0.25
